Assays:
[1] = system: Ghrelin; experiment: Plasma ghrelin (ELISA) after acute oral gavage in fasted rats; type: in vivo; conditions: adult male Wistar rats
Method: The protocol was approved by the Ethics Committee for Animal Experiments of the University of Malaga.
D-Pinitol (3-0-methyl-D-chiro-inositol) was generously provided by EURONUTRA SL (https://www.euronutra.com/, Malaga, Spain), in the form of crystalline fine powder (lot: PPN-M0201). For acute treatments, D-Pinitol was dissolved in water to be administered by gavage (orally) at different concentrations (100 mg/Kg and 500 mg/Kg), drug was administered at a volume of 1 ml/kg.
After 18 hours of fasting, D-Pinitol dissolved in water was administered acutely by gavage (100 mg/kg in a first study, and 500 mg/kg in a subsequent study). After administration, the animals were sacrificed in groups at different times (being time 0 the administration of D-Pinitol). For the first study (100 mg/kg), groups of animals were sacrificed at times: 10, 20, 30, 60, 120, 240 and 360 minutes after administration; for the second study (500 mg/kg), animals were sacrificed at times: 60, 120 and 240 minutes after administration. As a control group, a group was administered only with water (by gavage).
Animals were anesthetized with sodium pentobarbital (50 mg/Kg, i.p.), blood, brain and liver samples were collected. Blood was centrifuged (2100 g for 8 min, 4° C.) and the plasma kept for further analysis. Liver and brain samples were flash-frozen in liquid N2, then stored at −80° C. until further analysis.
The plasma levels of insulin and ghrelin were determined with an enzyme-linked immunosorbent assay (ELISA) method using commercial kits: EMD Millipore Corporation (Billerica, Mass., USA) Cat. #EZRMI-13K and Cat. #EZRGRT-91K, respectively. Glucagon levels in plasma was determined with a Glucagon Enzyme Immunoassay (EIA) Kit: Cat. #RAB0202 Sigma-Aldrich (Saint Louis, Mo., USA). All serum samples were assayed in duplicate within one assay, and results were expressed in terms of the particular standard hormone.

[2] = system: Protein Kinase A (PKA); experiment: Hippocampal PKA (western blot) after 10 days of oral drinking; type: in vivo, Wistar rats; conditions: oral by drinking 100 mg/Kg for 10 days, hippocampus, FIG. 10A.2
Method: Animal experimental procedures were carried out in accordance with the European Communities directive 2010/63/EU and Spanish legislation (Real Decreto 53/2013). The protocol was approved by the Research and approved by Ethics Committee for Animal Experiments of the University of Malaga, Spain. In accordance with the ARRIVE guidelines, all efforts were made to minimize animal suffering and to reduce the number of animals used per experimental group. Chronic drinking experiments on Wistar rats were performed on 20 male rats. All adult rats, ageing 2 months (≈300 g of body weight), were provided by Charles River Laboratories (Barcelona, Spain). The animals were housed individually under a standard 12 h light-dark cycle in a room with temperature and humidity control. Water and rat chow pellets were provided ad libitum throughout the course of the present study. […]
Western Blot Analysis. […] Bands were quantified by densitometric analysis using ImageJ software (Rasband, WS, ImageJ, US National Institutes of Health, Bethesda, Md., USA). […] The results were expressed as the protein/α-Adaptin ratio or phosphorylated/total protein ratio and normalized to the control group (Y axis represents ‘fold mean of the control values’).
All data are expressed as mean±SEM. […]

COC1[C@@H](O)[C@@H](O)C(O)[C@H](O)[C@H]1O (stereo partly drawn) [DPIN, (1S,2S,4S,5R)-6-methoxycyclohexane-1,2,3,4,5-pentol] was tested, and the “circulating plasma Ghrelin concentration” value ([1]; oral 100 mg/kg in sterile water, FIG. 2A) was “increase”, the “circulating plasma Ghrelin concentration” value ([1]; oral 500 mg/kg, FIG. 3A / FIG. 4) was “increase” and the “total amount of PKA” value [2] was “significant increase”.
